Publication PMC11957373 (Organic & biomolecular chemistry, 2024)

Legend:
HIV-1 protease = HIV-1 protease (Human immunodeficiency virus type 1 group M subtype B, UniProt P04585); experiment: HIV-1 protease inhibition, spectrofluorometric assay; type: biochemical; conditions: for Ki: HIV-1 protease
HIVLAI = experiment: Cell-based antiviral assay in MT-2 human-T-lymphoid cells exposed to HIVLAI; set-up: species or system HIV-1; conditions: for antiviral activity (in words): MT-2 cells exposed to HIVLAI
[1] = at least 5 data points, standard error less than 7%

COC[C@H]1O[C@H](C)C[C@@H]1OC(=O)N[C@@H](Cc1ccccc1)[C@H](O)CN(CC(C)C)S(=O)(=O)c1ccc(OC)cc1 [4h, (2R,3S,5R)-2-(methoxymethyl)-5-methyltetrahydrofuran-3-yl((2S,3R)-3-hydroxy-4-((N-isobutyl-4-methoxyphenyl)sulfonamido)-1-phenylbutan-2-yl)carbamate]
Ki (HIV-1 protease; value printed in pM): 49 pM
fold improvement of enzyme affinity compared to compound 4c (HIV-1 protease; relative to compound 4c): over 5 fold

COC[C@H]1O[C@@H](C)C[C@H]1OC(=O)N[C@@H](Cc1ccccc1)[C@H](O)CN(CC(C)C)S(=O)(=O)c1ccc(OC)cc1 [4e, (2R,3R,5S)-2-(methoxymethyl)-5-methyltetrahydrofuran-3-yl.((2S,3R)-3-hydroxy-4-((N-isobutyl-4-methoxyphenyl)sulfonamido)-1-phenylbutan-2-yl)carbamate]
fold reduction of protease inhibitory activity over compound 4c (HIV-1 protease; relative to compound 4c): ~4 fold

C=CCC1OC(C)CC1OC(=O)NC(Cc1ccccc1)C(O)CN(CC(C)C)S(=O)(=O)c1ccc(OC)cc1 [4a, (2S,3S,5R)-2-allyl-5-methyltetrahydrofuran-3-yl.((2S,3R)-3-hydroxy-4-((N-isobutyl-4-methoxyphenyl)sulfonamido)-1-phenylbutan-2-yl)carbamate]
Ki (HIV-1 protease; [1]): 400 pM
antiviral activity (in words) (HIVLAI): did not exhibit any appreciable antiviral activity

CC(C)CN(C[C@@H](O)[C@H](Cc1ccccc1)NC(=O)O[C@H]1CO[C@H]2OCC[C@H]21)S(=O)(=O)c1ccc(N)cc1 [Darunavir, darunavir, reference compound]
EC50 (HIVLAI; Human immunodeficiency virus 1, MT2): 1600 pM

COc1ccc(S(=O)(=O)N(CC(C)C)C[C@@H](O)[C@H](Cc2ccccc2)NC(=O)O[C@H]2C[C@@H](C)O[C@H]2[C@@H]2CCCO2)cc1 [4k, (2S,2’S,3S,5R)-5-methyloctahydro-[2,2’-bifuran]-3-yl((2S,3R)-3-hydroxy-4-((N-isobutyl-4-methoxyphenyl)sulfonamido)-1-phenylbutan-2-yl)carbamate]
Ki (HIV-1 protease; [1]): 310 pM
antiviral activity (in words) (HIVLAI): did not exhibit any appreciable antiviral activity

COC[C@@H]1O[C@H](C)C[C@@H]1OC(=O)N[C@@H](Cc1ccccc1)[C@H](O)CN(CC(C)C)S(=O)(=O)c1ccc(N)cc1 [4d, (2S,3S,5R)-2-(methoxymethyl)-5-methyltetrahydrofuran-3-yl((2S,3R)-4-((4-amino-N-isobutylphenyl)sulfonamido)-3-hydroxy-1-phenylbutan-2-yl)carbamate]
fold reduction of protease inhibitory activity over compound 4c (HIV-1 protease; relative to compound 4c): over 300 fold

COc1ccc(S(=O)(=O)N(CC(C)C)C[C@@H](O)[C@H](Cc2ccccc2)NC(=O)O[C@H]2C[C@@H](C)O[C@H]2[C@H]2CCCO2)cc1 [4l, (2S,2’R,3S,5R)-5-methyloctahydro-[2,2’-bifuran]-3-yl((2S,3R)-3-hydroxy-4-((N-isobutyl-4-methoxyphenyl)sulfonamido)-1-phenylbutan-2-yl)carbamate]
Ki (HIV-1 protease; value printed in pM): 44 pM
antiviral activity (in words) (HIVLAI): did not exhibit any appreciable antiviral activity
